Measurements: ChEMBL document CHEMBL1201862, “PubChem BioAssay data set” (2004)
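Values below derive from 48-hour exposures of cells grown in 96-well plates, with endpoints linearly interpolated between the two concentrations bracketing the appropriate inhibition level. GI50 = concentration required for 50% inhibition of growth.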 Active and inactive are the calls of the source. No stated cut-off is given here; in the data, active = GI50 up to about 1.1 µM and inactive = higher.

What was measured:
Assay in all cases: growth of human tumour cells (NCI), 48 h
[1] = tested on: SW-620
[2] = tested on: RXF 631
[3] = tested on: HOP-62
[4] = tested on: LOX IMVI
[5] = tested on: RPMI-8226
[6] = tested on: SN12C
[7] = tested on: DMS-273
[8] = tested on: HL-60
[9] = tested on: A498
[10] = tested on: ACHN
[11] = tested on: OVCAR-5
[12] = tested on: SF-539
[13] = tested on: UACC-257
[14] = tested on: IGROV-1
[15] = tested on: HOP-92
[16] = tested on: SNB-78
[17] = tested on: UO-31
[18] = tested on: OVCAR-3
[19] = tested on: MOLT-4
[20] = tested on: KM-20L2
[21] = tested on: M19-MEL
[22] = tested on: SK-OV-3
[23] = tested on: TK-10
[24] = tested on: HCT-15
[25] = tested on: HT-29
[26] = tested on: OVCAR-8
[27] = tested on: XF498
[28] = tested on: M14
[29] = tested on: K562
[30] = tested on: NCI-H23
[31] = tested on: 786-0
[32] = tested on: COLO 205
[33] = tested on: EKVX
[34] = tested on: SF-295
[35] = tested on: SF-268
[36] = tested on: NCI-H226
[37] = tested on: CAKI-1
[38] = tested on: KM12
[39] = tested on: SNB-75
[40] = tested on: DLD-1
[41] = tested on: HCC 2998
[42] = tested on: OVCAR-4
[43] = tested on: NCI-H522
[44] = tested on: A549
[45] = tested on: DMS-114
[46] = tested on: SNB-19
[47] = tested on: Malme-3M
[48] = tested on: UACC-62
[49] = tested on: U-251
[50] = tested on: NCI-H460
[51] = tested on: SK-MEL-2
[52] = tested on: HCT-116
[53] = tested on: CCRF-CEM
[54] = tested on: LXFL 529
[55] = tested on: SK-MEL-28
[56] = tested on: SK-MEL-5
[57] = tested on: HOP-18
[58] = tested on: SR
[59] = tested on: RXF 393

O=C(O)C12C3C4C1C1C2C3C41I (configuration not stated)
GI50 [1]: > 100 µM (inactive) | GI50 [2]: > 100 µM (inactive) | GI50 [3]: > 100 µM (inactive) | GI50 [4]: > 100 µM (inactive) | GI50 [5]: > 100 µM (inactive) | GI50 [6]: > 100 µM (inactive) | GI50 [7]: > 100 µM (inactive) | GI50 [8]: > 100 µM (inactive) | GI50 [9]: > 100 µM (inactive) | GI50 [10]: > 100 µM (inactive) | GI50 [11]: > 100 µM (inactive) | GI50 [12]: > 100 µM (inactive) | GI50 [13]: > 100 µM (inactive) | GI50 [14]: > 100 µM (inactive) | GI50 [15]: > 100 µM (inactive) | GI50 [16]: > 100 µM (inactive) | GI50 [17]: > 100 µM (inactive) | GI50 [18]: > 100 µM (inactive) | GI50 [19]: > 100 µM (inactive) | GI50 [20]: > 100 µM (inactive) | GI50 [21]: > 100 µM (inactive) | GI50 [22]: > 100 µM (inactive) | GI50 [23]: > 100 µM (inactive) | GI50 [24]: > 100 µM | GI50 [25]: > 100 µM (inactive) | GI50 [26]: > 100 µM (inactive) | GI50 [27]: > 100 µM (inactive) | GI50 [28]: > 100 µM (inactive) | GI50 [29]: > 100 µM (inactive) | GI50 [30]: > 100 µM (inactive) | GI50 [31]: > 100 µM (inactive) | GI50 [32]: > 100 µM (inactive) | GI50 [33]: > 100 µM (inactive) | GI50 [34]: > 100 µM (inactive) | GI50 [35]: > 100 µM (inactive) | GI50 [36]: > 100 µM (inactive) | GI50 [37]: > 100 µM (inactive) | GI50 [38]: > 100 µM (inactive) | GI50 [39]: 70.6 µM (inactive) | GI50 [40]: > 100 µM (inactive) | GI50 [41]: > 100 µM (inactive) | GI50 [42]: > 100 µM (inactive) | GI50 [43]: > 100 µM (inactive) | GI50 [44]: > 100 µM (inactive) | GI50 [45]: > 100 µM (inactive) | GI50 [46]: > 100 µM (inactive) | GI50 [47]: > 100 µM (inactive) | GI50 [48]: > 100 µM (inactive) | GI50 [49]: > 100 µM (inactive) | GI50 [50]: > 100 µM (inactive) | GI50 [51]: > 100 µM (inactive) | GI50 [52]: > 100 µM (inactive) | GI50 [53]: > 100 µM (inactive) | GI50 [54]: > 100 µM (inactive) | GI50 [55]: > 100 µM (inactive) | GI50 [56]: > 100 µM (inactive)

O=C1C(Cl)=C(Cl)C(=O)N1c1ccc(Cl)c(Cl)c1Cl
GI50 [1]: 35.5 µM (inactive) | GI50 [2]: > 100 µM (inactive) | GI50 [3]: > 100 µM (inactive) | GI50 [57]: > 100 µM (inactive) | GI50 [4]: 69 µM (inactive) | GI50 [5]: 34 µM (inactive) | GI50 [6]: 58.1 µM (inactive) | GI50 [7]: > 100 µM (inactive) | GI50 [8]: 24.3 µM (inactive) | GI50 [9]: > 100 µM (inactive) | GI50 [10]: 75 µM (inactive) | GI50 [11]: > 100 µM (inactive) | GI50 [12]: > 100 µM (inactive) | GI50 [13]: > 100 µM (inactive) | GI50 [14]: > 100 µM (inactive) | GI50 [15]: 24.7 µM (inactive) | GI50 [16]: > 100 µM (inactive) | GI50 [17]: > 100 µM (inactive) | GI50 [18]: 41.6 µM (inactive) | GI50 [19]: 32.6 µM (inactive) | GI50 [20]: > 100 µM (inactive) | GI50 [21]: 88.3 µM (inactive) | GI50 [22]: > 100 µM (inactive) | GI50 [23]: > 100 µM (inactive) | GI50 [24]: 31.1 µM | GI50 [25]: 51.4 µM (inactive) | GI50 [28]: 52.7 µM (inactive) | GI50 [29]: 30.5 µM (inactive) | GI50 [30]: 61.8 µM (inactive) | GI50 [31]: 44.5 µM (inactive) | GI50 [32]: 29.9 µM (inactive) | GI50 [33]: 61.5 µM (inactive) | GI50 [34]: > 100 µM (inactive) | GI50 [35]: 38 µM (inactive) | GI50 [36]: > 100 µM (inactive) | GI50 [37]: 25.5 µM (inactive) | GI50 [38]: > 100 µM (inactive) | GI50 [39]: > 100 µM (inactive) | GI50 [40]: 34.9 µM (inactive) | GI50 [41]: > 100 µM (inactive) | GI50 [42]: 28.4 µM (inactive) | GI50 [43]: 14.4 µM (inactive) | GI50 [44]: > 100 µM (inactive) | GI50 [45]: 32.7 µM (inactive) | GI50 [46]: 57.8 µM (inactive) | GI50 [47]: 31.6 µM (inactive) | GI50 [48]: 30.5 µM (inactive) | GI50 [49]: > 100 µM (inactive) | GI50 [50]: > 100 µM (inactive) | GI50 [51]: > 100 µM (inactive) | GI50 [58]: 26.9 µM (inactive) | GI50 [52]: 85.9 µM (inactive) | GI50 [53]: 21.7 µM (inactive) | GI50 [54]: 28.1 µM (inactive) | GI50 [55]: > 100 µM (inactive) | GI50 [56]: > 100 µM (inactive)

COc1ccc(OC)c(NC(=O)C(=O)C(C(=O)c2ccccc2F)C2OC(=O)c3ccccc32)c1 (configuration not stated)
GI50 [1]: 49.2 µM (inactive) | GI50 [2]: 34.7 µM (inactive) | GI50 [3]: 50.2 µM (inactive) | GI50 [4]: 25.2 µM (inactive) | GI50 [5]: 32.4 µM (inactive) | GI50 [6]: 35.9 µM (inactive) | GI50 [7]: 30.6 µM (inactive) | GI50 [8]: 34.8 µM (inactive) | GI50 [9]: > 100 µM (inactive) | GI50 [10]: 82.6 µM (inactive) | GI50 [11]: 79.4 µM (inactive) | GI50 [12]: 26.9 µM (inactive) | GI50 [13]: > 100 µM (inactive) | GI50 [14]: 89.3 µM (inactive) | GI50 [15]: > 100 µM (inactive) | GI50 [16]: 36.8 µM (inactive) | GI50 [17]: 50.6 µM (inactive) | GI50 [19]: 26.3 µM (inactive) | GI50 [20]: 51.9 µM (inactive) | GI50 [21]: 29.1 µM (inactive) | GI50 [22]: 59.4 µM (inactive) | GI50 [23]: > 100 µM (inactive) | GI50 [24]: 62.5 µM | GI50 [25]: 45.5 µM (inactive) | GI50 [26]: 35.1 µM (inactive) | GI50 [27]: 34.8 µM (inactive) | GI50 [28]: > 100 µM (inactive) | GI50 [29]: 42.8 µM (inactive) | GI50 [30]: 57.1 µM (inactive) | GI50 [32]: 48.3 µM (inactive) | GI50 [33]: 62.2 µM (inactive) | GI50 [34]: 45.8 µM (inactive) | GI50 [35]: 22.8 µM (inactive) | GI50 [36]: 16.6 µM (inactive) | GI50 [37]: 67.8 µM (inactive) | GI50 [38]: > 100 µM (inactive) | GI50 [39]: 39.7 µM (inactive) | GI50 [40]: 42 µM (inactive) | GI50 [41]: 44.8 µM (inactive) | GI50 [42]: 66.8 µM (inactive) | GI50 [43]: 23.5 µM (inactive) | GI50 [44]: 71.1 µM (inactive) | GI50 [45]: 20.8 µM (inactive) | GI50 [46]: 36 µM (inactive) | GI50 [48]: 36.4 µM (inactive) | GI50 [49]: 19.1 µM (inactive) | GI50 [50]: 44.8 µM (inactive) | GI50 [59]: 25.5 µM (inactive) | GI50 [51]: 43.1 µM (inactive) | GI50 [58]: 23.5 µM (inactive) | GI50 [52]: 37.3 µM (inactive) | GI50 [53]: 21.8 µM (inactive) | GI50 [54]: 77.3 µM (inactive) | GI50 [55]: 39.7 µM (inactive) | GI50 [56]: 79.1 µM (inactive)

NCCCNCCS [WR-1065]
GI50 [2]: > 100 µM (inactive) | GI50 [57]: > 100 µM (inactive) | GI50 [6]: > 100 µM (inactive) | GI50 [7]: > 100 µM (inactive) | GI50 [8]: > 100 µM (inactive) | GI50 [11]: > 100 µM (inactive) | GI50 [13]: > 100 µM (inactive) | GI50 [15]: > 100 µM (inactive) | GI50 [16]: > 100 µM (inactive) | GI50 [17]: > 100 µM (inactive) | GI50 [19]: > 100 µM (inactive) | GI50 [20]: > 100 µM (inactive) | GI50 [22]: > 100 µM (inactive) | GI50 [23]: > 100 µM (inactive) | GI50 [24]: > 100 µM | GI50 [25]: > 100 µM (inactive) | GI50 [26]: > 100 µM (inactive) | GI50 [27]: > 100 µM (inactive) | GI50 [28]: > 100 µM (inactive) | GI50 [29]: > 100 µM (inactive) | GI50 [33]: > 100 µM (inactive) | GI50 [34]: > 100 µM (inactive) | GI50 [35]: > 100 µM (inactive) | GI50 [37]: > 100 µM (inactive) | GI50 [38]: > 100 µM (inactive) | GI50 [41]: > 100 µM (inactive) | GI50 [42]: > 100 µM (inactive) | GI50 [44]: > 100 µM (inactive) | GI50 [46]: > 100 µM (inactive) | GI50 [48]: > 100 µM (inactive) | GI50 [49]: > 100 µM (inactive) | GI50 [59]: > 100 µM (inactive) | GI50 [51]: > 100 µM (inactive) | GI50 [54]: > 100 µM (inactive) | GI50 [56]: > 100 µM (inactive)
